Laboratory results taken from patent US20250388583A1, “COMPOUNDS AND METHOD FOR PKMYT1 INHIBITION” (Engine Biosciences Pte. Ltd., priority 2022, published 2025).

Key:
LCK = LCK (Homo sapiens (Human), UniProt P06239); assay: In vitro assay: kinase binding to immobilized ligand, captured kinase measured by qPCR
Source text: Example B-1: In Vitro Assay
Compounds that bind the kinase active site and directly (sterically) or indirectly (allosterically) prevent kinase binding to an immobilized ligand and reduce the amount of kinase captured on the solid support. Screening “hits” were identified by measuring the amount of kinase captured in test versus control samples by using a quantitative, precise and ultra-sensitive qPCR method that detect the associated DNA label. In a similar manner, dissociation constants (Kd's) for test compound-kinase interactions were calculated by measuring the amount of kinase captured on the solid support as a function of the test compound concentration.

PKMYT1 = PKMYT1 (Homo sapiens (Human), UniProt Q99640); assay: as above
PKMYT1, sequence (Q99640 whole entry): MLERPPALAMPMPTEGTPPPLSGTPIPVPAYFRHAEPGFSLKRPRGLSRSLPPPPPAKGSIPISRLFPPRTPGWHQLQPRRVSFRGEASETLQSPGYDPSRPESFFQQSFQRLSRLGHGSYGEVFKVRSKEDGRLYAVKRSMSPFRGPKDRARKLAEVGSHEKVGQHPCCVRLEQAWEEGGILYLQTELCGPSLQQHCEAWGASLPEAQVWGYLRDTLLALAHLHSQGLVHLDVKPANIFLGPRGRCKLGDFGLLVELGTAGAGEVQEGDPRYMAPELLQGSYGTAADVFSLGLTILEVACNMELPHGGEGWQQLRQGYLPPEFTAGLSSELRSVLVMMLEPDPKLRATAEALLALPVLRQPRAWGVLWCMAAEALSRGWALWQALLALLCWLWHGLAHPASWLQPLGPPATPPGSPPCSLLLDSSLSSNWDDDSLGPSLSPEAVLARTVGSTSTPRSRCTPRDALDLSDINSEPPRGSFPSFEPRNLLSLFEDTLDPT

LCK, sequence (P06239 whole entry): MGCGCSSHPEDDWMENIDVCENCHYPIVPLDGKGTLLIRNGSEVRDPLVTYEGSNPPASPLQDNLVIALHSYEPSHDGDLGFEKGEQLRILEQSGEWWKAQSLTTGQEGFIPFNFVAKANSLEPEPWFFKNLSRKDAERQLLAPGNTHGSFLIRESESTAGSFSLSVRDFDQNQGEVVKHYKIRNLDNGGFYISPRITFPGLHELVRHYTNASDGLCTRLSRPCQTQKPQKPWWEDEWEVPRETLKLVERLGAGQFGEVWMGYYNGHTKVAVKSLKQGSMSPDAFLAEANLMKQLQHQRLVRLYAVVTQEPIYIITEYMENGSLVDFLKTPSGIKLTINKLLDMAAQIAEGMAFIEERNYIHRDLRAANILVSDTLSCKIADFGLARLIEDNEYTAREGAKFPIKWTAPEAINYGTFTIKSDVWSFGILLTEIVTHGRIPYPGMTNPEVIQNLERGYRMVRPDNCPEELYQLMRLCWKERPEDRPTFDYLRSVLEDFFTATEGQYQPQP

IC50 (LCK) [nM] | IC50 (PKMYT1) [nM] | SMILES
100 to 1000 | < 50 | Cc1ncc2c(C(N)=O)c(N)n(-c3c(C)cc(F)c(O)c3C)c2n1 [Compound 602, 6-amino-7-(4-fluoro-3-hydroxy-2,6-dimethyl-phenyl)-2-methyl-pyrrolo[2,3-d]pyrimidine-5-carboxamide]
< 50 | < 50 | Cc1cc(F)c(O)c(C)c1-n1c(N)c(C(N)=O)c2cc(Cl)cnc21 [Compound 603, 2-amino-5-chloro-1-(4-fluoro-3-hydroxy-2,6-dimethyl-phenyl)pyrrolo[2,3-b]pyridine-3-carboxamide]
< 50 | < 50 | CCc1ncc2c(C(N)=O)c(N)n(-c3c(C)ccc(O)c3C)c2c1F [Compound 604, 2-amino-6-ethyl-7-fluoro-1-(3-hydroxy-2,6-dimethyl-phenyl)pyrrolo[3,2-c]pyridine-3-carboxamide]
< 50 | < 50 | Cc1ccc(O)c(C)c1-n1c(N)c(C(N)=O)c2cnc(C3CC3)c(F)c21 [Compound 605, 2-amino-6-cyclopropyl-7-fluoro-1-(3-hydroxy-2,6-dimethylphenyl)-1H-pyrrolo[3,2-c]pyridine-3-carboxamide]
< 50 | < 50 | CCc1c(O)cc(F)c(C)c1-n1c(N)c(C(N)=O)c2cnc(C)nc21 [Compound 659]
< 50 | < 50 | Cc1ccc(O)c(C)c1-n1c(N)c(C(N)=O)c2cnc(C3CC3)c(C#N)c21 [Compound 662]
< 50 | < 50 | Cc1c(O)cc(F)c(C)c1-n1c(N)c(C(N)=O)c2cnc(C3CC3)c(C#N)c21 [Compound 663, 2-amino-7-cyano-6-cyclopropyl-1-(3-fluoro-5-hydroxy-2,6-dimethyl-phenyl)pyrrolo[3,2-c]pyridine-3-carboxamide]
< 50 | < 50 | CCc1c(O)cc(F)c(C)c1-n1c(N)c(C(N)=O)c2cnc(C3CC3)c(C#N)c21 [Compound 673, 2-amino-7-cyano-6-cyclopropyl-1-(2-ethyl-5-fluoro-3-hydroxy-6-methyl-phenyl)pyrrolo[3,2-c]pyridine-3-carboxamide]

Continued, molecule first:

SMILES | IC50 (LCK) [nM] | IC50 (PKMYT1) [nM]
Cc1ccc(O)c(C)c1-n1c(N)c(C(N)=O)c2cnc(CCc3cscn3)c(F)c21 [Compound 638] | < 50 | < 50
Cc1ccc(O)c(C)c1-n1c(N)c(C(N)=O)c2cnc(CCc3cncs3)c(F)c21 [Compound 642] | < 50 | < 50
Cc1ccc(O)c(C)c1-n1c(N)c(C(N)=O)c2cnc(C#CC(F)(F)F)nc21 [Compound 648] | < 50 | 50 to 100
Cc1ccc(O)c(C)c1-n1c(N)c(C(N)=O)c2cnc(CCc3nccs3)c(F)c21 [Compound 649] | < 50 | < 50
Cc1ccc(O)c(C)c1-n1c(N)c(C(N)=O)c2cnc(/C=C/C3CC3)nc21 [Compound 651] | < 50 | < 50
Cc1cc2c(C(N)=O)c(N)n(-c3c(C)cc4c(c3C)OCC4)c2nc1C [Compound 675] | 100 to 1000 | > 1000
Cc1ncc2c(C(N)=O)c(N)n(-c3c(C)cc4[nH]c(=O)oc4c3C)c2n1 [Compound 680] | > 1000 | > 1000
